From ChEMBL document CHEMBL5053528, “Discovery of 2-(Ortho-Substituted Benzyl)-Indole Derivatives as Potent and Orally Bioavailable RORγ Agonists with Antitumor Activity” (J Med Chem, 2021)

Experiments:
[1] = Microsomal stability in human liver microsomes assessed as half life; type: ADME, Microsome
[2] = Microsomal stability in rat liver microsomes assessed as half life; type: ADME, Microsome
[3] = molecular target: T1, Nuclear receptor ROR-gamma (Homo sapiens, UniProt P51449); test: Antagonist activity at N-terminal GST tagged human RORgamma LBD using fluorescein-D22 as coactivator incubated for 60 mins by Lanthascreen TR-FRET assay
T1 sequence (P51449 whole entry): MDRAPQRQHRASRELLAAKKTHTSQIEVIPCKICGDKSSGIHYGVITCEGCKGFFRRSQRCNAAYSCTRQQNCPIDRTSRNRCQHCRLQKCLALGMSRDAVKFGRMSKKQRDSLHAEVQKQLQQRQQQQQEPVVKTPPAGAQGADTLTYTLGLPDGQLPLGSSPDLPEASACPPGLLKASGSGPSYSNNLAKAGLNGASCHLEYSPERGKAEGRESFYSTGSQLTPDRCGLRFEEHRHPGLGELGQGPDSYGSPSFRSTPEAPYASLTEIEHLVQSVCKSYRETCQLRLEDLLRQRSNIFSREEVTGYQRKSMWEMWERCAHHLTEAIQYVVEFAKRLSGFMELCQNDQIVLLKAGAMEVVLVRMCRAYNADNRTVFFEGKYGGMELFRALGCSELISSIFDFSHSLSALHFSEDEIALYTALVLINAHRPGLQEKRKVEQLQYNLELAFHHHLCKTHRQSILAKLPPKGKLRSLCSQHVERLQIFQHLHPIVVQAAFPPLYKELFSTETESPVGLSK

[4] = molecular target: T1, Nuclear receptor ROR-gamma; test: Antagonist activity at human RORgamma in cytostim stimulated human PBMC cells assessed as decrease in differentiation of TH17 cells by measuring IL-17 production preincubated with cytostim for 72 hrs by ELISA; type: cell-based
[5] = molecular target: T2, Nuclear receptor ROR-gamma (Homo sapiens) (UniProt P51449); test: Inverse agonist activity at human RORgamma in cytostim stimulated human PBMC cells assessed as […] in IL-17 production by measuring maximal efficacy preincubated with cytostim for 72 hrs by ELISA relative to control; type: cell-based; details: filed as inverse agonist
T2 sequence (whole entry): T1 sequence (P51449 whole entry)

[6] = molecular target: T1, Nuclear receptor ROR-gamma; test: Agonist activity at human RORgamma in cytostim stimulated human PBMC cells assessed as increase in differentiation of TH17 cells by measuring IL-17 production preincubated with cytostim for 72 hrs by ELISA; type: cell-based
[7] = molecular target: T1, Nuclear receptor ROR-gamma; test: Agonist activity at N-terminal GST tagged human RORgamma LBD using fluorescein-D22 as coactivator incubated for 60 mins by Lanthascreen TR-FRET assay

Row | Structure (SMILES) | half-life [1] [min] | half-life [2] [min] | EC50 [3] [nM] | EC50 [4] [nM] | Emax [5] [%] | EC50 [6] [nM] | EC50 [7] [nM]
1 | CCS(=O)(=O)c1ccc(CNC(=O)c2ccc3c(c2)cc(Cc2ccccc2Br)n3C(C)C)cc1 | 15 | 12 |  |  |  |  | 
2 | CCS(=O)(=O)c1ccc(CNC(=O)c2ccc3c(c2)cc(Cc2ccccc2C)n3C(C)C)cc1 |  |  | 44 |  |  |  | 
3 | CCS(=O)(=O)c1ccc(CNC(=O)c2ccc3c(c2)cc(Cc2ccc(C(F)(F)F)cc2)n3C(C)C)cc1 |  |  | 150 | 109 | 109 |  | 
4 | CCS(=O)(=O)c1ccc(CNC(=O)c2ccc3c(c2)cc(Cc2cccc(C(F)(F)F)c2)n3C(C)C)cc1 | 20 | 19 | 10 | 19 | 93 |  | 

Further lines, results first:

Row | half-life [1] [min] | half-life [2] [min] | EC50 [3] [nM] | EC50 [4] [nM] | Emax [5] [%] | EC50 [6] [nM] | EC50 [7] [nM] | Structure (SMILES)
5 | 39 | 43 |  |  |  |  |  | CCS(=O)(=O)c1ccc(CNC(=O)c2ccc3c(c2)cc(Cc2ccccc2C(F)(F)F)n3C(C)C)cc1
6 | 182 | 116 |  |  |  | 8 | 11 | CCS(=O)(=O)c1ccc(CNC(=O)c2ccc3c(c2)cc(Cc2ccc(Cl)cc2C(F)(F)F)n3C(C)C)cc1
7 | 72 | 64 |  |  |  | 17 | 14 | CCS(=O)(=O)c1ccc(CNC(=O)c2ccc3c(c2)cc(Cc2ccc(F)cc2C(F)(F)F)n3C(C)C)cc1
